As a reminder, the viability, T/C is the result in the treated group divided by that in the control group, in per cent.
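Also: spheroids exposed to compounds for 7 days before readout; percent of vehicle DMSO control viability with 100% = untreated-like growth.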

One assay deals with 282377-053-R-J1-PDC complex spheroids, viability. Put plainly: Anticancer human tumor 282377-053-R-J1-PDC patient-derived colon adenocarcinoma cell line growth inhibition [GQUAD]. Particulars: second compound 0.1 µM; first compound 1 µM; hits give low values. The essentials: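 Tumor cells were grown as complex spheroids with HUVEC endothelial cells and mesenchymal stem cells as stroma. G-quadruplex stabilizers were combined with targeted agents over half-log dilutions from near the clinical Cmax, or from 10 microM.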
As to `CC1COCCN1c1cc(C2(S(C)(=N)=O)CC2)nc(-c2ccnc3[nH]ccc23)n1` (configuration not stated) + Cc1[nH]c2ccc(F)cc2c1-c1nc2c3cccnc3c3ncccc3c2[nH]1, the viability, T/C is 94.8%.

Take `COc1ccc([C@@H](O)c2cc(-c3ncnc4cc(N5CCOCC5)ccc34)c(F)cc2Cl)nn1` + Cc1[nH]c2ccc(F)cc2c1-c1nc2c3cccnc3c3ncccc3c2[nH]1: the viability, T/C was 84.9%.

Staying with this assay, now noted: second compound 0.1 µM; first compound 3.16 µM; hits give low values.
As to `C=CCn1c(=O)c2cnc(Nc3ccc(N4CCN(C)CC4)cc3)nc2n1-c1cccc(C(C)(C)O)n1` + CN(C)c1ccc(Nc2c3ccc(NC(=O)CCN4CCCC4)cc3nc3cc(NC(=O)CCN4CCCC4)ccc23)cc1, the viability, T/C is 33.9%.

For `CC(C)(O)C1CCC(Nc2ccc3ncc(-c4cccc(C(F)(F)F)c4)n3n2)CC1` (configuration not stated) + CN(C)c1ccc(Nc2c3ccc(NC(=O)CCN4CCCC4)cc3nc3cc(NC(=O)CCN4CCCC4)ccc23)cc1, the viability, T/C is 22.7%.

With `COc1ncnc(C2CC2)c1-c1ncc2cnn(Cc3ccc(-c4nc(C(F)(F)F)cn4C(C)C)cc3)c2n1` + CN(C)c1ccc(Nc2c3ccc(NC(=O)CCN4CCCC4)cc3nc3cc(NC(=O)CCN4CCCC4)ccc23)cc1, the viability, T/C is 81.4%.

Regarding `CC1COCCN1c1cc(C2(S(C)(=N)=O)CC2)nc(-c2ccnc3[nH]ccc23)n1` (configuration not stated) + Cc1[nH]c2ccc(F)cc2c1-c1nc2c3cccnc3c3ncccc3c2[nH]1, the viability, T/C is 61.8%.

Regarding `COc1ccc([C@@H](O)c2cc(-c3ncnc4cc(N5CCOCC5)ccc34)c(F)cc2Cl)nn1` + Cc1[nH]c2ccc(F)cc2c1-c1nc2c3cccnc3c3ncccc3c2[nH]1, the viability, T/C was 72%.

Staying with this assay, now noted: second compound 0.1 µM; first compound 10 µM; hits give low values.
In the case of `C=CCn1c(=O)c2cnc(Nc3ccc(N4CCN(C)CC4)cc3)nc2n1-c1cccc(C(C)(C)O)n1` + CN(C)c1ccc(Nc2c3ccc(NC(=O)CCN4CCCC4)cc3nc3cc(NC(=O)CCN4CCCC4)ccc23)cc1, the viability, T/C is 15.1%.

With `CC(C)(O)C1CCC(Nc2ccc3ncc(-c4cccc(C(F)(F)F)c4)n3n2)CC1` (configuration not stated) + CN(C)c1ccc(Nc2c3ccc(NC(=O)CCN4CCCC4)cc3nc3cc(NC(=O)CCN4CCCC4)ccc23)cc1, the viability, T/C is 39.8%.

In the case of `COc1ncnc(C2CC2)c1-c1ncc2cnn(Cc3ccc(-c4nc(C(F)(F)F)cn4C(C)C)cc3)c2n1` + CN(C)c1ccc(Nc2c3ccc(NC(=O)CCN4CCCC4)cc3nc3cc(NC(=O)CCN4CCCC4)ccc23)cc1, the viability, T/C is 76.7%.

As for `CC1COCCN1c1cc(C2(S(C)(=N)=O)CC2)nc(-c2ccnc3[nH]ccc23)n1` (configuration not stated) + Cc1[nH]c2ccc(F)cc2c1-c1nc2c3cccnc3c3ncccc3c2[nH]1, the viability, T/C was 48.5%.

Take `COc1ccc([C@@H](O)c2cc(-c3ncnc4cc(N5CCOCC5)ccc34)c(F)cc2Cl)nn1` + Cc1[nH]c2ccc(F)cc2c1-c1nc2c3cccnc3c3ncccc3c2[nH]1: the viability, T/C is 61.1%.

The same assay, now with this note: second compound 0.316 µM; first compound 0.0316 µM; hits give low values.
In the case of `C=CCn1c(=O)c2cnc(Nc3ccc(N4CCN(C)CC4)cc3)nc2n1-c1cccc(C(C)(C)O)n1` + CN(C)c1ccc(Nc2c3ccc(NC(=O)CCN4CCCC4)cc3nc3cc(NC(=O)CCN4CCCC4)ccc23)cc1, the viability, T/C was 105%.

With `CC(C)(O)C1CCC(Nc2ccc3ncc(-c4cccc(C(F)(F)F)c4)n3n2)CC1` (configuration not stated) + CN(C)c1ccc(Nc2c3ccc(NC(=O)CCN4CCCC4)cc3nc3cc(NC(=O)CCN4CCCC4)ccc23)cc1, the viability, T/C was 106%.

With `COc1ncnc(C2CC2)c1-c1ncc2cnn(Cc3ccc(-c4nc(C(F)(F)F)cn4C(C)C)cc3)c2n1` + CN(C)c1ccc(Nc2c3ccc(NC(=O)CCN4CCCC4)cc3nc3cc(NC(=O)CCN4CCCC4)ccc23)cc1, the viability, T/C was 88.3%.

As to `CC1COCCN1c1cc(C2(S(C)(=N)=O)CC2)nc(-c2ccnc3[nH]ccc23)n1` (configuration not stated) + Cc1[nH]c2ccc(F)cc2c1-c1nc2c3cccnc3c3ncccc3c2[nH]1, the viability, T/C is 94.5%.

Consider `COc1ccc([C@@H](O)c2cc(-c3ncnc4cc(N5CCOCC5)ccc34)c(F)cc2Cl)nn1` + Cc1[nH]c2ccc(F)cc2c1-c1nc2c3cccnc3c3ncccc3c2[nH]1, for which the viability, T/C is 87.8%.

The same assay, now with this note: second compound 0.316 µM; first compound 0.1 µM; hits give low values.
`C=CCn1c(=O)c2cnc(Nc3ccc(N4CCN(C)CC4)cc3)nc2n1-c1cccc(C(C)(C)O)n1` + CN(C)c1ccc(Nc2c3ccc(NC(=O)CCN4CCCC4)cc3nc3cc(NC(=O)CCN4CCCC4)ccc23)cc1: the viability, T/C is 84.8%.

On to `CC(C)(O)C1CCC(Nc2ccc3ncc(-c4cccc(C(F)(F)F)c4)n3n2)CC1` (configuration not stated) + CN(C)c1ccc(Nc2c3ccc(NC(=O)CCN4CCCC4)cc3nc3cc(NC(=O)CCN4CCCC4)ccc23)cc1, for which the viability, T/C was 86%.

Turning to `COc1ncnc(C2CC2)c1-c1ncc2cnn(Cc3ccc(-c4nc(C(F)(F)F)cn4C(C)C)cc3)c2n1` + CN(C)c1ccc(Nc2c3ccc(NC(=O)CCN4CCCC4)cc3nc3cc(NC(=O)CCN4CCCC4)ccc23)cc1, the viability, T/C was 95.8%.

On to `CC1COCCN1c1cc(C2(S(C)(=N)=O)CC2)nc(-c2ccnc3[nH]ccc23)n1` (configuration not stated) + Cc1[nH]c2ccc(F)cc2c1-c1nc2c3cccnc3c3ncccc3c2[nH]1, for which the viability, T/C is 97.3%.

Turning to `COc1ccc([C@@H](O)c2cc(-c3ncnc4cc(N5CCOCC5)ccc34)c(F)cc2Cl)nn1` + Cc1[nH]c2ccc(F)cc2c1-c1nc2c3cccnc3c3ncccc3c2[nH]1, the viability, T/C was 93%.

The same assay, now with this note: second compound 0.316 µM; first compound 0.316 µM; hits give low values.
As for `C=CCn1c(=O)c2cnc(Nc3ccc(N4CCN(C)CC4)cc3)nc2n1-c1cccc(C(C)(C)O)n1` + CN(C)c1ccc(Nc2c3ccc(NC(=O)CCN4CCCC4)cc3nc3cc(NC(=O)CCN4CCCC4)ccc23)cc1, the viability, T/C was 74.5%.

With `CC(C)(O)C1CCC(Nc2ccc3ncc(-c4cccc(C(F)(F)F)c4)n3n2)CC1` (configuration not stated) + CN(C)c1ccc(Nc2c3ccc(NC(=O)CCN4CCCC4)cc3nc3cc(NC(=O)CCN4CCCC4)ccc23)cc1, the viability, T/C is 64.9%.

On to `COc1ncnc(C2CC2)c1-c1ncc2cnn(Cc3ccc(-c4nc(C(F)(F)F)cn4C(C)C)cc3)c2n1` + CN(C)c1ccc(Nc2c3ccc(NC(=O)CCN4CCCC4)cc3nc3cc(NC(=O)CCN4CCCC4)ccc23)cc1, for which the viability, T/C is 86.6%.

Turning to `CC1COCCN1c1cc(C2(S(C)(=N)=O)CC2)nc(-c2ccnc3[nH]ccc23)n1` (configuration not stated) + Cc1[nH]c2ccc(F)cc2c1-c1nc2c3cccnc3c3ncccc3c2[nH]1, the viability, T/C is 65.4%.

On to `COc1ccc([C@@H](O)c2cc(-c3ncnc4cc(N5CCOCC5)ccc34)c(F)cc2Cl)nn1` + Cc1[nH]c2ccc(F)cc2c1-c1nc2c3cccnc3c3ncccc3c2[nH]1, for which the viability, T/C was 73.8%.
